What was measured:
Assay in all cases: relative viability (nuclei count vs DMSO), 5 days (fraction); higher = more cells survive
[1] = compound: C[C@]12O[C@H](C[C@]1(O)CO)n1c3ccccc3c3c4c(c5c6ccccc6n2c5c31)CNC4=O [Lestaurtinib] + Nc1ncn([C@H]2C[C@H](O)[C@@H](CO)O2)c(=O)n1 [Decitabine] (partner 2 µM)
Procedure, shortened: (§1)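 Five library-drug doses in √10 steps were combined with a fixed anchor-drug dose, or a single drug was given alone, by pin tool to lung cancer cell lines in 1536-well plates the day after seeding. Nuclei were stained and counted after 5 days. Relative viability is the nuclei count in treated wells over that in vehicle wells, taken as the median of duplicate plates.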

Lestaurtinib + Alpelisib = compound: C[C@]12O[C@H](C[C@]1(O)CO)n1c3ccccc3c3c4c(c5c6ccccc6n2c5c31)CNC4=O [Lestaurtinib] + Cc1nc(NC(=O)N2CCC[C@H]2C(N)=O)sc1-c1ccnc(C(C)(C)C(F)(F)F)c1 [Alpelisib] (partner 2 µM)
Procedure, shortened: as §1

TPCA-1 + Dasatinib = compound: C1=CC(=CC=C1C2=CC(=C(S2)NC(=O)N)C(=O)N)F [TPCA-1] + Cc1nc(Nc2ncc(C(=O)Nc3c(C)cccc3Cl)s2)cc(N2CCN(CCO)CC2)n1 [Dasatinib] (partner 0.075 µM)
Procedure, shortened: as §1

[2] = compound: C[C@]12O[C@H](C[C@]1(O)CO)n1c3ccccc3c3c4c(c5c6ccccc6n2c5c31)CNC4=O [Lestaurtinib] + O=C(CCCCCCC(=O)Nc1ccccc1)NO [Vorinostat] (partner 1 µM)
Procedure, shortened: as §1

Cell Line UMC-11 has a relative viability ([1]; first compound 0.005 µM) of 0.63, a relative viability ([1]; first compound 0.01581 µM) of 1.49 and a relative viability ([1]; first compound 0.05 µM) of 0.544. It also gave a relative viability ([1]; first compound 0.1581 µM) of 0.241, a relative viability ([1]; first compound 0.5 µM) of 0.218 and a relative viability (Lestaurtinib + Alpelisib; first compound 0.005 µM) of 0.967. For the same cell line, the relative viability (Lestaurtinib + Alpelisib; first compound 0.01581 µM) was 0.968, the relative viability (Lestaurtinib + Alpelisib; first compound 0.05 µM) was 0.471 and the relative viability (Lestaurtinib + Alpelisib; first compound 0.1581 µM) was 0.297. For the same cell line, the relative viability (Lestaurtinib + Alpelisib; first compound 0.5 µM) was 0.156, the relative viability (TPCA-1 + Dasatinib; first compound 0.04 µM) was 0.494 and the relative viability (TPCA-1 + Dasatinib; first compound 0.1265 µM) was 0.443. It also gave a relative viability (TPCA-1 + Dasatinib; first compound 0.4 µM) of 0.494, a relative viability (TPCA-1 + Dasatinib; first compound 1.265 µM) of 0.457 and a relative viability (TPCA-1 + Dasatinib; first compound 4 µM) of 0.222. It also gave a relative viability ([2]; first compound 0.005 µM) of 0.367, a relative viability ([2]; first compound 0.01581 µM) of 0.36 and a relative viability ([2]; first compound 0.05 µM) of 0.323. It also gave a relative viability ([2]; first compound 0.1581 µM) of 0.182 and a relative viability ([2]; first compound 0.5 µM) of 0.118.

— the supplement of paper PMC10307832
